# Entries after “also recorded” stand apart in the source; their conditions may differ. Non-standard residues stand in square brackets, D forms with d. No end group written: not given here.
# Experiments:
# [1] = system: NS20Y neuroblastoma cells; assay: Neurite outgrowth in NS20Y neuroblastoma cells; format: cell-based
# Protocol: NS20Y neuroblastoma cells are grown in Dulbecco's modified Eagle medium (DMEM) containing 10% fetal calf serum (FCS). Cells are removed with trypsin and plated in 30 mm petri dishes onto glass coverslips. […] Cells are cultured for an additional 24 hours, washed with PBS and fixed with Bouin's solution (saturated aqueous picric acid/formalin/acetic acid 15:5:1) for 30 minutes. After fixative is removed with PBS, neurite outgrowth is scored under a phase contrast microscope. […] At least 200 cells are scored in different positions of each dish to determine the percentage of neurite bearing cells with each peptide assayed in duplicate.
# [2] = system: streptozotocin (STZ)-diabetic rats; assay: Formalin flinch test in streptozotocin-diabetic rats; format: in vivo, rat; set-up: hyperalgesia in formalin test / formalin-induced pain (allodynia): dose or concentration left out as unconfirmed
# Protocol: Rats were made diabetic by a single intraperitoneal injection of streptozotocin (STZ) (50 mg/kg body weight, freshly dissolved in 0.9% sterile saline) to ablate pancreatic β cells and induce insulin deficiency as described in Calcutt et al., Pain 68:293-299 (1996). Two days later, diabetes was confirmed in streptozotocin-injected rats by measuring blood glucose levels. Streptozotocin-injected animals with a blood glucose concentration below 15 mmol/l were excluded from subsequent studies, according to the commonly accepted definition of non-fasting hyperglycemia in studies of diabetes in rats.
# Both diabetic and control rats were studied at 8 weeks by analyzing the behavioral response to the noxious chemical formalin as an indicator of allodynia (Calcutt et al. supra (1996)). Briefly, rats received a subcutaneous injection of freshly-prepared formalin (50 μl of 0.5% solution in sterile saline) into the dorsal surface of the right hind paw. This concentration of formalin induces sub-maximal behavioral responses in control rats and allows detection of hyperalgesia in diabetic rats during phases Q and 2 (Calcutt et al., Eur. J. Pharmacol. 285:189-197 (1995). Animals were transferred to an observation chamber constructed to allow continuous visualization of the paws. The number of flinches during one minute periods were counted at 5 minute intervals for the next 60 minutes by an observer who was unaware of the treatment group of each animal. Phase 1 was defined as the initial measurement of flinching (1-2 and 5-6 minutes post injection); the Q (quiescent) phase as the measurements made at 10-11, 15-16 and 20-21 minutes; and Phase 2 as all subsequent measurements post injection, as previously defined for studies of diabetic rats (see, for example, Malmberg et al., Neurosci. […] Comparisons of activity during each phase were made by summing the flinches at measurement points within the phase. Diabetic rats gave an abnormal flinch response, as has been reported previously.
# Peptide SEQ ID NO:2 was obtained in pure form by chemical synthesis, dissolved in sterile PBS and buffered to a neutral pH. Diabetic rats were divided in two groups of four animals each, which were administered saline or peptide SEQ ID NO:2, respectively.
# The formalin testing was done after 4 weeks, of three time weekly injections, and testing was done after the last dose (last bar, FIG. 7).
# This EXAMPLE was designed to determine whether prosaptide could also reverse conduction deficits and hyperalgesia in the formalin test pain model once these disorders are established in diabetic rats. SNCV was measured before onset of diabetes and 4-8 weeks later in groups of control, untreated diabetic and prosaptide-treated (200 μg/kg i.p. thrice weekly for the last 4 weeks) diabetic rats. Flinch responses to injection of formalin (50 μl or 0.5% or 5.0% solution) were followed for 60 min in control, 8 week untreated diabetic, […] with prosaptide (200 μg/kg i.p.) thrice weekly for the last 4 weeks (the last treatment being 48-72 hr pre-test).
# control rats = assay: Formalin test in control rats; format: in vivo, rat; settings: single bolus doses of up to 1 mg/kg i.p. 30 min pre-test
# Chung model rats = assay: Tactile allodynia (von Frey, 50% paw withdrawal threshold) after bolus intrathecal injection in Chung model rats; format: in vivo, rat
# Protocol: Each of the three peptides were obtained in pure form by chemical synthesis, dissolved in sterile PBS and buffered to a neutral pH.
# The surgical procedure previously described by Kim and Chung, supra (1992) was performed on male Sprague-Dawley rats weighing 120 to 150 grams to induce an allodynic state. Briefly, the rats were anesthetized with halothane; subsequently, the left L-5 and L-6 spinal nerves were isolated adjacent to the vertebral column and ligated with 6.0 silk suture distal to the dorsal root ganglion.
# After a ten to fourteen day post operative recovery period, a spinal catheter was introduced. Five days following the second surgery, intrathecal drug administration was accomplished using a gear driven micro-injection syringe connected to a spinal catheter inserted through the foramen magnum. Prior to testing, the rats were placed in clear plastic wire meshed cages and allowed to acclimate.
# To assess the 50% mechanical threshold for paw withdrawal, a von Frey hair was applied to the hind foot avoiding the foot pad. Each of the von Frey hairs, which are calibrated to bend at increasing log forces, were pressed perpendicularly to the foot with sufficient force to cause slight bending for a duration of approximately six to eight seconds. A positive response was noted if the foot was sharply withdrawn. Six data points were collected for each point with the maximum and minimum stimulus noted for each time point. The resulting pattern of the responses was tabulated, and the 50% response threshold was computed. The graph gives the response to the indicated dosage of peptide given as a single intrathecal bolus injection. The X-axis indicates the time after the injection at which point the hypersensitivity to pressure on the foot pad was measured.
# NS20Y cells = assay: Neural cell death (trypan blue) in NS20Y cells; format: cell-based; settings: 8 ng/ml, 2 days in 0.5% fetal bovine serum
# Protocol: Media is removed and 0.2% trypan blue in PBS is added to each well. Dead cells stain blue with the trypan blue dye and are scored as a percentage of the total on an inverted microscope, counting 400 cells in four areas of each well. The average error of duplicates is ±5%.
# neuroblastoma cells = assay: Neurotrophic activity (neurite outgrowth, choline acetyltransferase, cell death); format: cell-based
# [3] = system: Newborn mouse cerebellar explants; assay: Ex vivo myelination assay in newborn mouse cerebellar explants; format: cell-based; settings: 10 μg/ml
# Protocol: Newborn mouse cerebellar explants are prepared according to Satomi, Zool. Sci. 9:127-137 (1992). Neurite outgrowth and myelination are observed over 22 days in culture, during the period when the newborn mouse cerebellum normally undergoes neuronal differentiation and myelination begins. […] Neurite outgrowth and myelination in three control and three treated explants is assessed under a bright field microscope with a video camera. On the eighth day, cultures containing the peptides are thinner and more spread out than control cultures. […] Such projections are absent or less prominent in control cultures. […] Thus, the peptide of the invention induces myelination in differentiating cerebellum ex vivo.
# Schwann cells = assay: Schwann cell death in culture (inhibition of demyelination); format: cell-based
# Excerpt: Reduction of Schwann cell death is correlated with inhibition of demyelination. Schwann cells contain an extensive myelin sheath.
# [4] = 200 μg/kg intraperitoneal, two hours before 0.5% formalin
substance,measurement,setting,value
T[dA]LIDNNATEEILY [SEQ ID NO:2],neurite outgrowth (percentage of neurite bearing cells),"[1]; 24 hours, compared to a scrambled control peptide",significantly increases neurite outgrowth
same,concentration at which increased neurite outgrowth is evident,[1]; as little as,0.5 ng/mL
same,hyperalgesia during the formalin test,"[2]; 200 μg/kg i.p. thrice weekly for the last 4 weeks, last treatment 48-72 hr pre-test",reduction in hyperalgesia
same,abnormal flinch response in Phase 1,[2]; [4],completely prevented the abnormal flinch response
same,amelioration of the flinch response in Phase 2,[2]; [4],70%
same,hyperalgesia in formalin test,"[2]; after 8 weeks of diabetes, i.p. 30 min before testing",reversed the hyperalgesia
same,hyperalgesia in the diabetic rat,"[2]; given parenterally, FIG. 7",reverses hyperalgesia
same,hyperalgesia during the formalin test,"[2]; single bolus 200 μg/kg i.p. 30 min pre-test, 8 week diabetic rats",effective in abolishing hyperalgesia
same,formalin-induced pain (allodynia),[2]; three time weekly injections for 4 weeks,prevention of formalin-induced pain (allodynia)
same,responses to formalin in control rats,control rats,without effect on responses to formalin
same,time of maximum (peak) effect post-injection,Chung model rats; intrathecal bolus,15 to 30 min
same,time of return to the pre-injection value,"Chung model rats; intrathecal bolus, FIG. 2",≤ 60 min
same,tactile allodynia (force threshold),"Chung model rats; intrathecal bolus, doses of FIG. 2",effective in reducing allodynia
same,activity in alleviating neuropathic pain as assayed using Chung rats,Chung model rats; summary statement,reduces the painful allodynia; also recorded: alleviate neuropathic pain
same,number of trypan blue-positive (dead) cells,NS20Y cells,substantially reduces the number of trypan blue-positive (dead) cells
same,neurotrophic activity,neuroblastoma cells,have neurotrophic activity
same,myelinated axons in the subcortical white matter,"[3]; 22 days, compared to control explants",significantly more myelinated axons
same,neurite outgrowth (long projections) in explants,[3]; day 15,contain many cells with long projections at the periphery of the explant
same,Schwann cell death,Schwann cells,reduces Schwann cell death in a dose-dependent manner

# From patent US6849602B1 (The Regents of the University of California, priority 1996, dated 2005)
